Calls of active or inactive are those of the source.
What was measured:
Caspase-6 = target: T1, Caspase-6 (Homo sapiens, UniProt P55212); experiment: inhibition of CASP6 peptide cleavage – biochemical, VEID-R110 fluorescence, cherry-pick, dose response (AID 720632)
T1 sequence (P55212 whole entry): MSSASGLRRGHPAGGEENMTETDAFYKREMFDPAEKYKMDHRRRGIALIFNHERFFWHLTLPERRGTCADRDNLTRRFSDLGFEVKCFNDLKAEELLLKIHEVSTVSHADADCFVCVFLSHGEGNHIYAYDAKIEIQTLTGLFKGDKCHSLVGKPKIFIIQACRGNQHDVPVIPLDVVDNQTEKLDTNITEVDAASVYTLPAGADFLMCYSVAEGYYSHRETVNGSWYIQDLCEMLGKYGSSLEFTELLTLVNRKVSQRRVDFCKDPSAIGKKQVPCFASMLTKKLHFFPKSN

Caspase-8 = Caspase-8 (Homo sapiens, UniProt Q14790); experiment: inhibitors of purified CASP8 protease – biochemical, Z-IETD-R110 fluorescence, cherry-picked samples, selectivity assay for caspase-6 inhibitor project, dose response (AID 743294)
Caspase-8, sequence (Q14790 217-374 limits assumed): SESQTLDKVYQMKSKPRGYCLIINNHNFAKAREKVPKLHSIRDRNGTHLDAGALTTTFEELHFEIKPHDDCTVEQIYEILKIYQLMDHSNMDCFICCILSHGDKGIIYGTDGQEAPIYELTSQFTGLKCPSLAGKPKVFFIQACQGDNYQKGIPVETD
Caspase-8, sequence (Q14790 385-479 limits assumed): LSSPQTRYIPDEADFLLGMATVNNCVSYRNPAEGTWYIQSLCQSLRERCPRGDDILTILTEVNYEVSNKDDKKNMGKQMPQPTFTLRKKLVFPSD

[1] = target: Induced myeloid leukemia cell differentiation protein Mcl-1 (Homo sapiens, UniProt Q07820); format: functional
Induced myeloid leukemia cell differentiation protein Mcl-1, sequence (Q07820 whole entry): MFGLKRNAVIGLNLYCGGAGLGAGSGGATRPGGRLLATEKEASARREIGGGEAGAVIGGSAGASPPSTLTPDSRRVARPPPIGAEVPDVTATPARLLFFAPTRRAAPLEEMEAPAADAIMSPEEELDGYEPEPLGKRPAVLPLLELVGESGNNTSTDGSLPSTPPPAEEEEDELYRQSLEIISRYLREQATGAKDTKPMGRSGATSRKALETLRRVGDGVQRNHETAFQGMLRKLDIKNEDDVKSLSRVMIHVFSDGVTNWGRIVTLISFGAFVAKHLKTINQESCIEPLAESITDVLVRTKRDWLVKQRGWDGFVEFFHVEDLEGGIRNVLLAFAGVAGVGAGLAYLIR

[2] = THP-1 cell cytotoxicity, dose response, cytotoxicity control for non-replicating M. tuberculosis project (AID 489025); format: functional
[3] = HepG2 cell cytotoxicity, dose response, cytotoxicity control for non-replicating M. tuberculosis project (AID 489018); format: functional; conditions: Mycobacterium tuberculosis
Vero = experiment: viability of Vero cells under compound – cytotoxicity control for flavivirus capping enzyme inhibitors (AID 588742); format: functional; conditions: Chlorocebus sabaeus
cells = format: functional
Caspase-3 = target: T2, Caspase-3 (Homo sapiens, UniProt P42574); format: functional;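 also: Dose-response selectivity test against caspase-3 for candidate inhibitors of sentrin-specific proteases (SENPs)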
T2 sequence (P42574 whole entry): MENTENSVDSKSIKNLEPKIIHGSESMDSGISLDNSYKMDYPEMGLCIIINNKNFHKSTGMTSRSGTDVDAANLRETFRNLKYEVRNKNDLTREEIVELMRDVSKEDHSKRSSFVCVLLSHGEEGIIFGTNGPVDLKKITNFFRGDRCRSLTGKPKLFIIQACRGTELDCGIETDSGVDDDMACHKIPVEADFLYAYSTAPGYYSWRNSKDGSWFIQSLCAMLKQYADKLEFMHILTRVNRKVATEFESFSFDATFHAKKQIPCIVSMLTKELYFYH

[4] = target: 1-phosphatidylinositol 4,5-bisphosphate phosphodiesterase beta-3 (Homo sapiens, UniProt Q01970); experiment: Fluorescence-based biochemical high throughput dose response assay to identify inhibitors of phospholipase C isozymes (PLC-B3).
1-phosphatidylinositol 4,5-bisphosphate phosphodiesterase beta-3, sequence (Q01970 whole entry): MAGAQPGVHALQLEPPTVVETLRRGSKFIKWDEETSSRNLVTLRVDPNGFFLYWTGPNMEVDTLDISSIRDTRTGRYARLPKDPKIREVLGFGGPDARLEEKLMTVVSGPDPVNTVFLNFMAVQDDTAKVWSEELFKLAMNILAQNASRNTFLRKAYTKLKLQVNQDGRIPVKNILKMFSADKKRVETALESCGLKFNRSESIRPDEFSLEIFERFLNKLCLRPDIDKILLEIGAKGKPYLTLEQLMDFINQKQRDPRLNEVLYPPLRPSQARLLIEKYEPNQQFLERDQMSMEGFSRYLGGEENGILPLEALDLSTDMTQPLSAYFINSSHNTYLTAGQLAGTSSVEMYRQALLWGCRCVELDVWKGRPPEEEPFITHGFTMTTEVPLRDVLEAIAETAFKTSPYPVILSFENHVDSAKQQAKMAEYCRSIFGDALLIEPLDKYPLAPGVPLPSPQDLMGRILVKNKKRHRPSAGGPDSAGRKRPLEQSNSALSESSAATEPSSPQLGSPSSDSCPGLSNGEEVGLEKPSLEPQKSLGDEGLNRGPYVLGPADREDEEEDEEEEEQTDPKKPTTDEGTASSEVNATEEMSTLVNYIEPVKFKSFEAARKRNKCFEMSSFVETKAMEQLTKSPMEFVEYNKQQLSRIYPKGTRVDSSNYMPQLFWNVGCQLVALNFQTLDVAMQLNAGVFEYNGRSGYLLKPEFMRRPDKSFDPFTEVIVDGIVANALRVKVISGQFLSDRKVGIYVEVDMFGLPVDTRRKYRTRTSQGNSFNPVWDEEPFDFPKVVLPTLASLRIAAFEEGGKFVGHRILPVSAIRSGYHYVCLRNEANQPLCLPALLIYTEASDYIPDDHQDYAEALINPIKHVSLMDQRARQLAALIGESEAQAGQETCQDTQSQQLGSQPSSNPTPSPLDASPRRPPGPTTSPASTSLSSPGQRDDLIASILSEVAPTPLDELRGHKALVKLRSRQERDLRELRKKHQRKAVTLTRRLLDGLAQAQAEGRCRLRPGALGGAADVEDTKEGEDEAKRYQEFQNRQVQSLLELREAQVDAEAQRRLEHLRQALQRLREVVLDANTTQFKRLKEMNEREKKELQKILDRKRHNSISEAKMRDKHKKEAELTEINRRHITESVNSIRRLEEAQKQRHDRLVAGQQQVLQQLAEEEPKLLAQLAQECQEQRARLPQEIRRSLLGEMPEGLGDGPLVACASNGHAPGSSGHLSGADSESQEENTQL

Phospholipase A2 = Phospholipase A2 (Homo sapiens, UniProt P04054); format: functional;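 also: confirmatory dose-response counterscreen on phospholipase A2, testing hits that came from an ultra-high-throughput screen for ATG4B inhibitors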
Phospholipase A2, sequence (P04054 whole entry): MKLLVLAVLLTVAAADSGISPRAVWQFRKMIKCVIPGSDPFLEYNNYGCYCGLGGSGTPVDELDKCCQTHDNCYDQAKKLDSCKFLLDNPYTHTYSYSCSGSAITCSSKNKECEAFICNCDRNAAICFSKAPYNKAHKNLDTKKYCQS

Cysteine protease ATG4B = target: T3, Cysteine protease ATG4B (Homo sapiens, UniProt Q9Y4P1); format: functional;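 also: Fluorescence-based dose-response confirmation assay measuring inhibition of ATG4B activity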
T3 sequence (Q9Y4P1 whole entry): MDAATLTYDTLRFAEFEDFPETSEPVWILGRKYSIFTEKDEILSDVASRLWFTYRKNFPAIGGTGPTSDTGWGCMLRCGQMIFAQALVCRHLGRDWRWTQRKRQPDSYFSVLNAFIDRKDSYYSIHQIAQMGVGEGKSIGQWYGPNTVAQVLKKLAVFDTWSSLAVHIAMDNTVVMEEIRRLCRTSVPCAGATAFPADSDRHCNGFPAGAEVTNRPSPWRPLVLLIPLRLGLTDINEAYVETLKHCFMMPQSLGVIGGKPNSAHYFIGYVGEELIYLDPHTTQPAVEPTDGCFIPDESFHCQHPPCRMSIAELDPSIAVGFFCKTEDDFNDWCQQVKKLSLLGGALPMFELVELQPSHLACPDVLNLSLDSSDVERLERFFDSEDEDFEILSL

[5] = target: 1-phosphatidylinositol 4,5-bisphosphate phosphodiesterase gamma-1 (Homo sapiens, UniProt P19174); experiment: Counterscreen for inhibitors of phospholipase C isozymes (PLC-B3): Fluorescence-based biochemical high throughput dose response assay to identify inhibitors of phospholipase C isozymes (PLC-gamma1).
1-phosphatidylinositol 4,5-bisphosphate phosphodiesterase gamma-1, sequence (P19174 whole entry): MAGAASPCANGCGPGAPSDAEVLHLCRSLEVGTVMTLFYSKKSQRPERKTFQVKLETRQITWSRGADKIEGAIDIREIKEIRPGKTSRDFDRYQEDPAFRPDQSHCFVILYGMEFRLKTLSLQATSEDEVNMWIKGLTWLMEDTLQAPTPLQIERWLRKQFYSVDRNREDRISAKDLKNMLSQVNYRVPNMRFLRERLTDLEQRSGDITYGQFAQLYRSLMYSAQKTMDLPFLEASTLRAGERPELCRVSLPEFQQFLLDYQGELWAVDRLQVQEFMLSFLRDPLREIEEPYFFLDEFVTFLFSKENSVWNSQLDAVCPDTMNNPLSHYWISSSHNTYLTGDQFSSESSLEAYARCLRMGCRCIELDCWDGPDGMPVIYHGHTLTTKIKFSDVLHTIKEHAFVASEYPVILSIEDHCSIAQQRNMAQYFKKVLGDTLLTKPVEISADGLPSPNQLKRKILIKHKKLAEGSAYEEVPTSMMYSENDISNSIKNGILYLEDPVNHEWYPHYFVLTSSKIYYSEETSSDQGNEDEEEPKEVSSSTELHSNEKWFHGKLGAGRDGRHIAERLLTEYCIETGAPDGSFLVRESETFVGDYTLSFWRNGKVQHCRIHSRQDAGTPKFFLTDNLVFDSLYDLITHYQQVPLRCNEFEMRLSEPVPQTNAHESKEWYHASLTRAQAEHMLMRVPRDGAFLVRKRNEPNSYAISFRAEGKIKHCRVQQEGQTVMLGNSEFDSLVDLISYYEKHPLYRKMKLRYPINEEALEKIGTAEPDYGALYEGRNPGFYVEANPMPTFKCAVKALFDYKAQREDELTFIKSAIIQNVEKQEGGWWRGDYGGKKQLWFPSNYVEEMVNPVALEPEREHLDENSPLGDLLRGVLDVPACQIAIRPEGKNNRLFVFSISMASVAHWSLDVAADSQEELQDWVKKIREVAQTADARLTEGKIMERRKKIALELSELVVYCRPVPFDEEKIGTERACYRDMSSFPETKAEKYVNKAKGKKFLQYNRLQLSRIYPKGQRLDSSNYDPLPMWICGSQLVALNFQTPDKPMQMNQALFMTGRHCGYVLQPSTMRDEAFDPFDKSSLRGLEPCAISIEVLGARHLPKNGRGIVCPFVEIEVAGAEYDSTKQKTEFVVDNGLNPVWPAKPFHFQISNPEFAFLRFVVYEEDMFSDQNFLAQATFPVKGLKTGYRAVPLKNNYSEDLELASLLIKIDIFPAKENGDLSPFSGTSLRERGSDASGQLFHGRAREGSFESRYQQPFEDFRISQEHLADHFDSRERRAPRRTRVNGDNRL

Row | Compound | AC50 (Caspase-6) | AC50 (Caspase-8) | IC50 [1] | CC50 [2] | CC50 [3] | CC50 (Vero) | IC50 (cells) | IC50 (Caspase-3) | IC50 [4] | IC50 (Phospholipase A2) | IC50 (Cysteine protease ATG4B) | IC50 [5]
1 | COc1cc(-c2ccc(Nc3ccccc3C(=O)O)c(OC)c2)ccc1Nc1ccccc1C(=O)O | 4.6 µM (active) | 48 µM (active) | 1.52 µM (active) | – | – | – | – | – | – | – | – | –
2 | COC(CNC(=O)c1ccc2c3c(onc13)-c1ccccc1C2=O)OC | – | – | – | 7.86 µM (active) | 15.1 µM (active) | 20.4 µM (active) | 41.5 µM (active) | – | – | – | – | –
3 | COc1ccc(OC)c(Nc2cc3ccccc3c(O)n2)c1 | 2.44 µM (active) | 6.14 µM (active) | – | – | – | – | – | 1.88 µM (active) | – | – | – | –
4 | O=C(O)c1ccc(NC2=C/C(=N/S(=O)(=O)c3ccccc3)c3ccccc3C2=O)cc1 | – | – | 1.65 µM (active) | – | – | 31.4 µM (active) | – | 4.5 µM (active) | > 122 µM (inactive) | 34.7 µM (inactive) | 10.1 µM (active) | 45.5 µM (inactive)
5 | Nc1ccc2c(c1)C(=O)C(=O)c1ccccc1-2 | – | – | – | 2.74 µM (active) | 7.59 µM (active) | – | 7.1 µM (active) | – | > 122 µM (inactive) | 48.8 µM (inactive) | 1.56 µM (active) | 5.14 µM (active)
